From patent US4499091A, “1-Amino (or substituted amino)-1,4-dihydro-4-oxo-6-fluoro-7-heterylquinoline-3-carboxylic acids and their use as antibacterial agents” (Sterling Drug Inc., priority 1983, dated 1985)
Converted amounts (≈) assume the structure as drawn. Read-outs that look alike come from different tables or passages of the source.

How the values were obtained:
[1] = system: Proteus mirabilis MGH-1; test: in vitro antibacterial activity, serial dilution (MIC); assay type: cell-based; details: MGH1, 18-20 hours static incubation, read-out: Minimal Inhibitory Concentration (MIC)
Method: (§1) The in vitro antibacterial activity of the compounds of the invention was determined by conventional serial dilution procedures. Bacterial cultures were grown in tryptose phosphate broth or brain heart infusion broth (containing heat-inactivated normal horse serum for tests with S. pyogenes) overnight at 37° C. and subsequently diluted in double strength broth to provide bacterial inocula of about 2×10^5 cells/ml. Aqueous solutions of the compounds of the invention were prepared by dissolving the free acid form in 0.5N sodium hydroxide. The solutions were diluted with sterile distilled water to 1000 mcg/ml of compound in terms of the free acid. Serial two-fold dilutions of the compound stock solutions were prepared in water and 0.5 ml of each dilution was transferred to sets of tubes, one set for each bacterial inoculum.

[2] = system: Klebsiella pneumoniae 39645; test: as above; assay type: cell-based; details: 18-20 hours static incubation, read-out: Minimal Inhibitory Concentration (MIC)
Method: as §1

[3] = system: Staphylococcus aureus Smith; test: as above; assay type: cell-based; details: 18-20 hours static incubation, read-out: Minimal Inhibitory Concentration (MIC)
Method: as §1

[4] = system: Proteus vulgaris 9920; test: as above; assay type: cell-based; details: 18-20 hours static incubation, read-out: Minimal Inhibitory Concentration (MIC)
Method: as §1

[5] = system: Pseudomonas aeruginosa MGH-2; test: as above; assay type: cell-based; details: MGH2, 18-20 hours static incubation, read-out: Minimal Inhibitory Concentration (MIC)
Method: as §1

[6] = system: Escherichia coli Vogel; test: as above; assay type: cell-based; details: 18-20 hours static incubation, read-out: Minimal Inhibitory Concentration (MIC)
Method: as §1

[7] = system: Streptococcus pyogenes C203; test: as above; assay type: cell-based; details: 18-20 hours static incubation, read-out: Minimal Inhibitory Concentration (MIC)
Method: as §1

[8] = system: Klebsiella pneumoniae 39645; test: in vivo antibacterial activity in mice infected with K. pneumoniae (PD50); parameters: species or system mouse (female) infected with Klebsiella pneumoniae; details: Klebsiella pneumoniae, 39645, sc, 336 h, read-out: Protective Dose (PD50)
Method: (§2) The in vivo antibacterial activity of the compounds of the invention was determined in female mice, 18-20 grams each, by the following procedure:
(§3) Aqueous solutions of the compounds to be tested were prepared by dissolving the free acid form in dilute sodium hydroxide and diluting the solution with distilled water to be desired volume.
(§4) Cultures of Escherichia coli Vogel prepared in brain heart infusion broth, cultures of Klebsiella pneumoniae 39645 grown in tryptose phosphate broth with 5% rabbit serum diluted in the same broth and cultures of Pseudomonas aeruginosa MGH-2 grown on brain heart infusion agar and suspended in physiological saline, were used to infect the mice as follows:
K. pneumoniae: mice were inoculated intramuscularly in the right hind leg with 0.2 ml of the bacterial test inoculum (2.05×10^4 cells/ml).
Mice infected with K. pneumoniae were medicated at the following times: seventeen hours and one hour preinfection, six hours postinfection and twice a day for the next three days. The test compound was administered by both subcutaneous (0.2 ml) and oral (0.5 ml) routes. Deaths were recorded daily for fourteen days.
(§5) Groups of ten animals each for four or five dose levels were thus treated and the number of survivors in each group recorded. The fifty percent protective dose values (PD50) were then calculated.

[9] = system: Pseudomonas aeruginosa MGH-2; test: in vivo antibacterial activity in mice infected with P. aeruginosa (PD50); parameters: species or system mouse (female) infected with Pseudomonas aeruginosa; details: MGH2, sc, 168 h, read-out: Protective Dose (PD50)
Method: as §2, §3, §4
Deaths were recorded daily for seven days.
as §5

[10] = system: Escherichia coli Vogel; test: in vivo antibacterial activity in mice infected with E. coli (PD50); parameters: species or system mouse (female) infected with Escherichia coli; details: sc, 168 h, read-out: Protective Dose (PD50)
Method: as §2, §3, §4
Mice infected with E. coli were medicated once (0.5 ml) one-half hour post infection, the test compound being administered by either the subcutaneous (s.c.) or oral (p.o.) route. Deaths were recorded daily for seven days.
as §5

[11] = mouse, K. pneumoniae, s.c., pre- and postinfection, 14 days
[12] = mouse, E. coli, s.c., once one-half hour post infection, 7 days

| SMILES | MIC [1] | MIC [2] | MIC [3] | MIC [4] | MIC [5] | MIC [6] | MIC [7] | ED50 [8] | ED50 [9] | ED50 [10] | ED50 [8, 11] | ED50 [10, 12] |
| --- | --- | --- | --- | --- | --- | --- | --- | --- | --- | --- | --- | --- |
| CCNn1cc(C(=O)O)c(=O)c2cc(F)c(Cl)cc21 [7-Chloro-1-ethylamino-6-fluoro-1,4-dihydro-4-oxo-3-quinolinecarboxylic acid] | 3.9 µg/mL (≈ 13.7 µM) | 3.9 µg/mL (≈ 13.7 µM) | 15.6 µg/mL (≈ 54.8 µM) | 0.25 µg/mL (≈ 0.878 µM) | 31.3 µg/mL (≈ 110 µM) | 1.95 µg/mL (≈ 6.85 µM) | 31.3 µg/mL (≈ 110 µM) | – | – | – | – | – |
| CNn1cc(C(=O)O)c(=O)c2cc(F)c(N3CCNCC3)cc21 [Example 4, 6-Fluoro-1,4-dihydro-1-methylamino-4-oxo-7-(1-piperazinyl)-3-quinolinecarboxylic acid] | 0.5 µg/mL (≈ 1.56 µM) | 1 µg/mL (≈ 3.12 µM) | 2 µg/mL (≈ 6.24 µM) | 0.25 µg/mL (≈ 0.78 µM) | 1 µg/mL (≈ 3.12 µM) | 1 µg/mL (≈ 3.12 µM) | – | 6.25 mg/kg | 0.46 mg/kg | 0.32 mg/kg | – | – |
| CCCNn1cc(C(=O)O)c(=O)c2cc(F)c(N3CCN(C)CC3)cc21 [Example 6, 6-Fluoro-1,4-dihydro-7-(4-methyl-1-piperazinyl)-4-oxo-1-propylamino-3-quinolinecarboxylic acid] | 31.3 µg/mL (≈ 86.4 µM) | 2 µg/mL (≈ 5.52 µM) | 15.6 µg/mL (≈ 43 µM) | 2 µg/mL (≈ 5.52 µM) | 31.3 µg/mL (≈ 86.4 µM) | 2 µg/mL (≈ 5.52 µM) | 125 µg/mL (≈ 345 µM) | – | – | – | > 200 mg/kg | 32 mg/kg |
| CNn1cc(C(=O)O)c(=O)c2cc(F)c(N3CCN(C(C)C)CC3)cc21 [Example 10, 6-Fluoro-1,4-dihydro-1-methylamino-7-[4-(1-methylethyl)-1-piperazinyl]-4-oxo-3-quinolinecarboxylic acid] | 4 µg/mL (≈ 11 µM) | 0.5 µg/mL (≈ 1.38 µM) | 2 µg/mL (≈ 5.52 µM) | – | 8 µg/mL (≈ 22.1 µM) | 0.5 µg/mL (≈ 1.38 µM) | 4 µg/mL (≈ 11 µM) | – | – | – | 50 mg/kg | 2.7 mg/kg |
| CNn1cc(C(=O)O)c(=O)c2cc(F)c(N3CCCN(C)CC3)cc21 [Example 20, 6-Fluoro-7-(hexahydro-4-methyl-1H-1,4-diazapin-1-yl)-1,4-dihydro-1-methylamino-4-oxo-3-quinolinecarboxylic acid] | 2 µg/mL (≈ 5.74 µM) | 4 µg/mL (≈ 11.5 µM) | 4 µg/mL (≈ 11.5 µM) | – | 4 µg/mL (≈ 11.5 µM) | 2 µg/mL (≈ 5.74 µM) | 32 µg/mL (≈ 91.9 µM) | – | – | – | 33 mg/kg | 3.6 mg/kg |
| CNn1cc(C(=O)O)c(=O)c2cc(F)c(N3CCC(O)C3)cc21 (stereo not shown) [Example 22, 6-Fluoro-1,4-dihydro-7-(3-hydroxy-1-pyrrolidinyl)-1-methylamino-4-oxo-3-quinolinecarboxylic acid] | 1 µg/mL (≈ 3.11 µM) | 4 µg/mL (≈ 12.4 µM) | 1 µg/mL (≈ 3.11 µM) | – | 4 µg/mL (≈ 12.4 µM) | 1 µg/mL (≈ 3.11 µM) | 16 µg/mL (≈ 49.8 µM) | – | – | – | 118 mg/kg | 10.4 mg/kg |
